# Measured values reported in patent US11352350B2, “IRAK degraders and uses thereof” (Kymera Therapeutics, Inc., priority 2018, dated 2022).
# pIC50: −log10 of the molar value. Read-outs that look alike come from different tables or passages of the source.
# Columns and labels:
# IRAK4 = IRAK4 (Homo sapiens (Human), UniProt Q9NWZ3); assay: IRAK4 MSD degradation in OCI-LY10; type: cell-based
# How it was run: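 Remaining IRAK4 quantified by electrochemiluminescent MSD sandwich assay with two anti-IRAK4 antibodies. Compounds were dosed as 8 concentrations in 1:3 steps from a 1 to 10 μM final top on OCI-LY10 cells, incubated 4 to 24 h at 37° C. under 5% CO2. DC50 fitted with a three-parameter logistic curve.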
# OCI-LY10 = assay: CTG Cell Viability Assay - OCI-LY10; type: cell-based, human; settings: Homo sapiens, OCI-Ly10, 96 h, OCI-LY10, 4 days; read-out: CTG Cell Viability Assay - OCI-LY10: Average external-IC50
# How it was run: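 Viability read by CellTiter-Glo luminescence after 4 days at 37° C under 5% CO2 with compound (top 10 μM final, 1:3 steps, 9 doses, DMSO 0.2%). Three-parameter logistic fit gave IC50.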
# [1] = OCI-LY10, 4 hrs, MSD, read-out: IRAK4 MSD degradation in OCI-LY10 at 4 hrs: Average external-Abs DC50
# [2] = OCI-LY10, 24 hrs, MSD, read-out: IRAK4 MSD degradation in OCI-LY10 at 24 hrs: Average external-Abs DC50
# [3] = OCI-LY10, 4 hrs, read-out: IRAK4 MSD degradation in OCI-LY10 at 4 hrs: DC50
# [4] = OCI-LY10, 24 hrs, read-out: IRAK4 MSD degradation in OCI-LY10 at 24 hrs: DC50
# Sequence of IRAK4 (Q9NWZ3 whole entry): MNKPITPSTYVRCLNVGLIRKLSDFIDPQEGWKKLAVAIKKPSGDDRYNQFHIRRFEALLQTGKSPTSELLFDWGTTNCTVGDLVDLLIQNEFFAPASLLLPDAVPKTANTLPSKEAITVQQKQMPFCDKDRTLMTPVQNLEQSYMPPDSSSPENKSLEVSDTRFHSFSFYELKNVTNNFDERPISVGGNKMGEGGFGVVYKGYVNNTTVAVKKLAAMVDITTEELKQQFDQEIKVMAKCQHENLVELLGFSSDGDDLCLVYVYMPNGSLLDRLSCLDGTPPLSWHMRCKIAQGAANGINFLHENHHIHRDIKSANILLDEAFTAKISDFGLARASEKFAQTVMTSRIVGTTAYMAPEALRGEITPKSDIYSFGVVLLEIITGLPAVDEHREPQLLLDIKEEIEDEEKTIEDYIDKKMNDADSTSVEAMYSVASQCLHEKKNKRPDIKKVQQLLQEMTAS
SMILES,DC50 (IRAK4; [1]) [nM],pIC50 (OCI-LY10),DC50 (IRAK4; [2]) [nM],DC50 (IRAK4; [3]) [nM],DC50 (IRAK4; [4]) [nM]
CN(CCOCCNCc1ccc2c(c1)n(C)c(=O)n2C1CCC(=O)NC1=O)C[C@H]1CC[C@H](n2cc(NC(=O)c3coc(-c4ccnc(NCC5CC5)c4)n3)c(C(F)F)n2)CC1 (some centres unmarked) [I-107],< 10,< 6.00,,,
O=C1CCC(N2C(=O)c3cccc(NCCCOC4CCN(C[C@H]5CC[C@H](n6ncc(NC(=O)c7cnn8ccc(N9C[C@H]%10CC9CO%10)nc78)c6C(=O)O)CC5)CC4)c3C2=O)C(=O)N1 (some centres unmarked) [I-348],> 1000,< 6.00,> 1000,,
"NCC#Cc1ccc(-n2cc(NC(=O)c3coc(-c4ccnc(NCC5CC5)c4)n3)c(C(F)F)n2)cc1 [I-391, N-[l-[4-(3-aminoprop-1-ynyl)phenyl]-3-(difluoromethyl)pyrazol-4-yl]-2-[2-(cyclopropylmethylamino)-4-pyridyl]oxazole-4-carboxamide]",> 1000,< 6.00,> 1000,,
CC[C@@H]1CC(=O)N[C@@H]1COc1ncc(C#C[C@H]2CC[C@@H](CN(C)CCCOCCCc3cccc4c3n(C)c(=O)n4C3CCC(=O)NC3=O)CC2)c2cc(C(N)=O)c(OC)cc12 (some centres unmarked) [I-201],> 1000,< 6.00,100 to 1000,,
CC[C@@H]1[C@H](F)C(=O)N[C@@H]1COc1ncc(C#CC2CCN(CCCOCCCc3cccc4c3n(C)c(=O)n4C3CCC(=O)NC3=O)CC2)c2cc(C(N)=O)c(OC)cc12 (some centres unmarked) [I-204],100 to 1000,< 6.00,10 to 100,,
O=C1CCC(N2C(=O)c3cccc(N4CCC(CCCN5CCC(n6cc(NC(=O)c7cnn8ccc(N9CCOCC9)nc78)c(C(F)F)n6)CC5)CC4)c3C2=O)C(=O)N1 (centres unmarked) [I-228],> 1000,< 6.00,,,
"O=C1CCC(N2C(=O)c3cccc(NCCCOC4CCN(C[C@H]5OC[C@H](n6cc(NC(=O)c7cnn8ccc(N9CCOCC9)nc78)c(C(F)F)n6)CO5)CC4)c3C2=O)C(=O)N1 (some centres unmarked) [I-451, N-[3-(difluoromethyl)-1-[2-[[4-[3-[[2-(2,6-dioxo-3-piperidyl)-1,3-dioxo-isoindolin-4-yl]amino]propoxy]-1-piperidyl]methyl]-1,3-dioxan-5-yl]pyrazol-4-yl]-5-morpholino-pyrazolo [1,5-a] pyrimidine-3-carboxamide]",,6.30 to 7.00,,10 to 100,10 to 100
Cn1c(=O)n(C2CCC(=O)NC2=O)c2ccc(CN3CCN(CCO[C@H]4C[C@H](N(C)C[C@H]5CC[C@H](n6cc(NC(=O)c7coc(-c8ccnc(NCC9CC9)c8)n7)c(C(F)F)n6)CC5)C4)CC3)cc21 (some centres unmarked) [I-252],< 10,6.30 to 7.00,,,
CC[C@@H]1[C@H](F)C(=O)N[C@@H]1COc1ncc(C#C[C@H]2CC[C@H](CN3CCC(OCCNc4cccc5c4C(=O)N(C4CCC(=O)NC4=O)C5=O)CC3)CC2)c2cc(C(N)=O)c(OC)cc12 (some centres unmarked) [I-386],100 to 1000,> 7.30,10 to 100,,
CN(CCCOCCCc1cccc2c1n(C)c(=O)n2C1CCC(=O)NC1=O)C[C@H]1CC[C@H](n2cc(NC(=O)c3cnn4ccc(N5CCOCC5)nc34)c(C(F)F)n2)CC1 (some centres unmarked) [I-259],< 10,< 6.00,< 10,,
CN(CCCN1CCN(c2cccc3c2C(=O)N(C2CCC(=O)NC2=O)C3=O)CC1)C[C@H]1CC[C@H](n2cc(NC(=O)c3cnn4ccc(N5CCOCC5)nc34)c(C(F)F)n2)CC1 (some centres unmarked) [I-225],10 to 100,< 6.00,,,
Cn1c(=O)n(C2CCC(=O)NC2=O)c2cccc(CCCOCCC(=O)N3CCN([C@H]4CC[C@H](Nc5ncnc6ccc(C#N)cc56)CC4)CC3)c21 (some centres unmarked) [I-159],> 1000,< 6.00,> 1000,,
"CN(C[C@H]1CC[C@H](n2cc(NC(=O)c3coc(-c4ccnc(NCC5CC5)c4)n3)c(C(F)F)n2)CC1)C1CCN(Cc2cccc3c2n(C)c(=O)n3[C@H]2CCC(=O)NC2=O)CC1 [I-308, 2-(2-((cyclopropylmethyl)amino)pyridin-4-yl)-N-(3-(difluoromethyl)-1-((1S,4r)-4-(((1-((1-((S)-2,6-dioxopiperidin-3-yl)-3-methyl-2-oxo-2,3-dihydro-1H-benzo [d]imidazol-4-yl)methyl)piperidin-4-yl)(methyl)amino)methyl)cyclohexyl)-1H-pyrazol-4-yl)oxazole-4-carboxamide]",< 10,> 7.30,,,
O=C1CCC(N2C(=O)c3cccc(OCCCOC4CCN(C[C@H]5CC[C@H](n6cc(NC(=O)c7cnn8ccc(N9CCOCC9)nc78)c(C(F)F)n6)CC5)CC4)c3C2=O)C(=O)N1 (some centres unmarked) [I-209],10 to 100,< 6.00,< 10,,
"Cn1c(=O)n([C@H]2CCC(=O)NC2=O)c2cccc(CCCOC3CCN(C[C@H]4CC[C@H](n5cc(NC(=O)c6cnn7ccc(N8CCOCC8)nc67)c(C(F)F)n5)CC4)CC3)c21 [I-310, N-(3-(difluoromethyl)-1-((1r,4r)-4-((4-(3-(1-((S)-2,6-dioxopiperidin-3-yl)-3-methyl-2-oxo-2,3-dihydro-1H-benzo [d]imidazol-4-yl)propoxy)piperidin-1-yl)methyl)cyclohexyl)-1H-pyrazol-4-yl)-5-morpholinopyrazolo[1,5-a]pyrimidine-3-carboxamide]",< 10,< 6.00,,,
O=C1CCC(N2C(=O)c3cccc(NC[C@H]4CC[C@H](OC5CCN(C[C@H]6CC[C@H](n7cc(NC(=O)c8cnn9ccc(N%10CCOCC%10)nc89)c(C(F)F)n7)CC6)CC5)CC4)c3C2=O)C(=O)N1 (some centres unmarked) [I-473],,> 7.30,,10 to 100,< 10
Cn1c(=O)n(C2CCC(=O)NC2=O)c2cccc(CCCOCC3CCN(C[C@H]4CC[C@H](n5cc(NC(=O)c6cnn7ccc(N8CCOCC8)nc67)c(C(F)F)n5)CC4)CC3)c21 (some centres unmarked) [I-198],< 10,< 6.00,,,
Cn1c(=O)n(C2CCC(=O)NC2=O)c2cccc(CN3CCC(N(C)[C@H]4CC[C@H](Oc5ncnc6ccc(C#N)cc56)CC4)CC3)c21 (some centres unmarked) [I-270],> 1000,< 6.00,> 1000,,
O=C1CCC(N2Cc3c(NCC4CCN(C[C@H]5CC[C@H](C6N=C(NC(=O)c7cnn8ccc(N9C[C@H]%10C[C@@H]9CO%10)nc78)C(C(F)F)=N6)CC5)CC4)cccc3C2=O)C(=O)N1 (some centres unmarked) [I-380],100 to 1000,< 6.00,10 to 100,,
"CN(CCCOCCCc1cccc2c1n(C)c(=O)n2[C@@H]1CCC(=O)NC1=O)C[C@H]1CC[C@H](n2cc(NC(=O)c3coc(-c4ccnc(NCC5CC5)c4)n3)c(C(F)F)n2)CC1 (single isomer, unassigned) [I-307]",10 to 100,< 6.00,,,
CN(CCCN1CCO[C@@H](CNc2cccc3c2C(=O)N(C2CCC(=O)NC2=O)C3=O)C1)C[C@H]1CC[C@H](n2cc(NC(=O)c3cnn4ccc(N5C[C@H]6C[C@@H]5CO6)nc34)c(C(F)F)n2)CC1 (some centres unmarked) [I-347],100 to 1000,> 7.30,10 to 100,,
"Cn1c(=O)n(C2CCC(=O)NC2=O)c2cccc(CCCOC3CCN(C[C@H]4CC[C@H](n5cc(NC(=O)c6cnn7ccc(N8C[C@H](N)CC(F)(F)C8)nc67)c(C(F)F)n5)CC4)CC3)c21 (stereo partly drawn) [I-303, 5-[(5R)-5-amino-3,3-difluoro-1-piperidyl]-N-[3-(difluoromethyl)-1-[4-[[4-[3-[1-(2,6-dioxo-3-piperidyl)-3-methyl-2-oxo-benzimidazol-4-yl]propoxy]-1-piperidyl]methyl]cyclohexyl]pyrazol-4-yl] pyrazolo [1,5-a] pyrimidine-3-carboxamide]",10 to 100,< 6.00,,,
CC[C@@H]1[C@H](F)C(=O)N[C@@H]1COc1ncc(C#C[C@H]2CC[C@H](CN(C)C3CCN(Cc4cccc5c4n(C)c(=O)n5C4CCC(=O)NC4=O)CC3)CC2)c2cc(C(N)=O)c(OC)cc12 (some centres unmarked) [I-189],10 to 100,< 6.00,< 10,,
O=C1CCC(n2c(=O)oc3c(CCCOC4CCN(C[C@H]5CC[C@H](n6cc(NC(=O)c7cnn8ccc(N9CCNCC9)nc78)c(C(F)F)n6)CC5)CC4)cccc32)C(=O)N1 (some centres unmarked) [I-165],10 to 100,6.00 to 6.30,,,
CN(CCCOCCCN(C)C(=O)c1ccc(CNCc2ccc(-c3ccc4c(cnn4CC4CC4)c3)cc2)cc1)C[C@H]1CC[C@H](n2cc(NC(=O)c3coc(-c4ccnc(NCC5CC5)c4)n3)c(C(F)F)n2)CC1 [I-133],> 1000,< 6.00,> 1000,,
O=C1CCC(N2C(=O)c3cccc(NCC4CC5(CCN(C[C@H]6CC[C@H](n7cc(NC(=O)c8cnn9ccc(N%10C[C@H]%11C[C@@H]%10CO%11)nc89)c(C(F)F)n7)CC6)CC5)C4)c3C2=O)C(=O)N1 (some centres unmarked) [I-373],> 1000,> 7.30,10 to 100,,
CN(C[C@H]1CC[C@H](n2cc(NC(=O)c3cnn4ccc(N5C[C@H]6C[C@@H]5CO6)nc34)c(C(F)F)n2)CC1)C1CCN(CCNc2cccc3c2C(=O)N(C2CCC(=O)NC2=O)C3=O)CC1 (some centres unmarked) [I-367],10 to 100,6.30 to 7.00,,,
Cn1c(=O)n(C2CCC(=O)NC2=O)c2cccc(C3CCN(C[C@H]4CC[C@H](n5cc(NC(=O)c6cnn7ccc(N8CCOCC8)nc67)c(C(F)F)n5)CC4)CC3)c21 (some centres unmarked) [I-199],100 to 1000,< 6.00,,,
Cn1c(=O)n(C2CCC(=O)NC2=O)c2cccc(CCCOC3CCN(C[C@H]4CC[C@H](n5cc(NC(=O)c6cnn7ccc(N[C@@H]8CCCC(F)(F)[C@@H]8N)nc67)c(C(F)F)n5)CC4)CC3)c21 (some centres unmarked) [I-300],100 to 1000,6.00 to 6.30,,,
O=C1CCC(N2C(=O)c3cccc(NCCOC4CCN(C[C@H]5CC[C@H](n6cc(NC(=O)c7cnn8ccc(N9CCOCC9)nc78)c(C(F)F)n6)CC5)CC4)c3C2=O)C(=O)N1 (some centres unmarked) [I-210],10 to 100,< 6.00,10 to 100,,
